# Test results: patent US11236067B2, “Compound for treating cystic fibrosis” (ORPHOMED, INC., priority 2019, dated 2022)
# “Also recorded” adds a separate entry of the source.
# Experiments:
# [1] = Solubility by nephelometry (turbidity) in HEPES-buffered physiological saline with 0.3% DMSO; assay type: physicochemical; settings: HB-PS with 0.3% DMSO; for solubility: HEPES-buffered physiological saline with 0.3% DMSO, aqueous buffer, kinetic from dmso stock, interpolated from solubility and turbidity plots, read-out: Solubility limit
# Method: Solubility of the compound of Formula I (Compound 10) and ivacaftor was evaluated in HEPES-buffered physiological saline solution (HB-PS) with 0.3% DMSO. Solubility was measured as absence of turbidity using microparticualtes light-scattering technology in nephelometer and output expressed as nephelometry turbidity units (NTU). The HEPES buffer with 0.3% DMSO was the media used for the Ussing Chamber assays as described below. Concentrations of Compound 10 and ivacaftor tested in duplicate were 0, 0.01, 0.03, 0.1, 0.3, 1, 3, 10, 30 μM. The NIST traceable reference standard at 0, 0.2, 0.6 and 1 NTU were measured in duplicate as a reference standard for turbidity. The NTU values were plotted against the concentrations of Compound 10 and ivacaftor.
# [2] = Metabolic stability in human liver microsomes with NADPH generating system; assay type: in vitro ADME; settings: for Substrate remaining (%) / Substrate loss (%) / microsomal CLint at 1 uM / half-life at 1 uM: 1 μM substrate; for microsomal CLint at 1 uM: read-out: Estimated in vitro intrinsic clearance (μL/min/mg protein); for half-life at 1 uM: read-out: Half-life estimated from single exponential decay; for Metabolic stability (in words): substrate in the presence of human liver microsomes
# Method: The compound of Formula I (Compound 10) (1 uM) and ivacaftor (1 uM) were incubated with human liver microsomes (1 mg/mL protein/mL) in the presence of NADPH generating system (NADP (1 mM, ph7, glucose-6-phosphate (5 mM ph 7.4) and glucose-6-phosphate dehydrogenase (1 Unit/mL) for 0, 30, 60, and 120 minutes. Remaining substrate was measured by LC-MS/MS. Concentration of the test article was converted to percent drug remaining relative to the concentration of the test article at Time Zero.
# F508del CFTR = molecular target: T1, F508del CFTR (Homo sapiens, UniProt P13569, DEL508-508); assay: CFTR potentiator activity, Ussing chamber assay in primary bronchial epithelia (CFhBE); assay type: cell-based
# T1 construct: human primary bronchial epithelia obtained from donors with the homozygous F508del CFTR missense mutation (CFhBE); endogenous in cells; host or cells: human primary bronchial epithelial cells (CFhBE) from donors homozygous for F508del
# T1 sequence (P13569 with tags, fused parts or gaps DEL508-508): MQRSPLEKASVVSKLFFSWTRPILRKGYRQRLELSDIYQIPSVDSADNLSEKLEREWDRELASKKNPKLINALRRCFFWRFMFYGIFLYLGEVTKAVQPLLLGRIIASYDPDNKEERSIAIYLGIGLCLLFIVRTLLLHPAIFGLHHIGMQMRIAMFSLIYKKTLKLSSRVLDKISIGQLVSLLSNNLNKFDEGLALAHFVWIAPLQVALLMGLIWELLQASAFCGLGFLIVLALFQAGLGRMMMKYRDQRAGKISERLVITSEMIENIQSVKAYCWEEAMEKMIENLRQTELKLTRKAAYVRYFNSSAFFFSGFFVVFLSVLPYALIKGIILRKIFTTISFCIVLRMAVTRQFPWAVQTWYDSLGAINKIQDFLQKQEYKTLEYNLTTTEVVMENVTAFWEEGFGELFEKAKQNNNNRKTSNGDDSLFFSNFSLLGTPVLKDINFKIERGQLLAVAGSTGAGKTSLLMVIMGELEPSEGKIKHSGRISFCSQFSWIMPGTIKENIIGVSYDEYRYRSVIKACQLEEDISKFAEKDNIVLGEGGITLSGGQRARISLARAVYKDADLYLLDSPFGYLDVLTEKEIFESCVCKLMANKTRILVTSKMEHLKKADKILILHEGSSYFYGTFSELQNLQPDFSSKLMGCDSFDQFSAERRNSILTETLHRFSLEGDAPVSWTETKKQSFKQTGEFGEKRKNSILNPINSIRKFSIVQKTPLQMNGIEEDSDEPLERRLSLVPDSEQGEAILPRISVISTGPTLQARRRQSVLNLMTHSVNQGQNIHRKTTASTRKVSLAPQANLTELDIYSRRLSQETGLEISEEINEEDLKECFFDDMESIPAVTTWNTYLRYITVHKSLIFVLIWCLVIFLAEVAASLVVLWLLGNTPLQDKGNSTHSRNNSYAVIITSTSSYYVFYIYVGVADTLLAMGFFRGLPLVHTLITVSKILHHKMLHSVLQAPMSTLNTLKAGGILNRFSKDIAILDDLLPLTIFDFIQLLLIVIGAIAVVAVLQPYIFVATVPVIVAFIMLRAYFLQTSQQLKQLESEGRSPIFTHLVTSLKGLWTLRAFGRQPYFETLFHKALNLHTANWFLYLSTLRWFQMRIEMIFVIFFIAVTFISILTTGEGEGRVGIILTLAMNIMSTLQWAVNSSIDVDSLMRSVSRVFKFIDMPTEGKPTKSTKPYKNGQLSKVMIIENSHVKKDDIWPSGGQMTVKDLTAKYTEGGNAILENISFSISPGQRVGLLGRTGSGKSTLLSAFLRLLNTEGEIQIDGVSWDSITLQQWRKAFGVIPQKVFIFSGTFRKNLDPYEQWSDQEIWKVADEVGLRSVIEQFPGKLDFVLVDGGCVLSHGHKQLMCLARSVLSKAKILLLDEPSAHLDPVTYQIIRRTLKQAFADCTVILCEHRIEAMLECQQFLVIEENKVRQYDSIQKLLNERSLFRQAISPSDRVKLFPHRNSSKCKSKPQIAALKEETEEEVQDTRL
# Method: Chloride ion channel potentiator activity of the compound of Formula I (Compound 10) and ivacaftor was evaluated in monlayer cultures of human primary bronchial epithelia obtained from donors with the homozygous F508del CFTR missense mutation (CFhBE) using Ussing assay technology.
# The Ussing chamber assay is a well-established method for measurement of transport across epithelia of a wide variety of transport substrates (Clark, American Journal of Physiology.Gastrointestinal and liver Physiology, 2009, 296, G1151-1166). The Ussing half-chambers permit both apical and basolateral surfaces of an epithelium to be exposed to identical solutions, eliminating the chemical concentration gradient for movement of molecules across the epithelium. Under these symmetric solution conditions, the epithelium generates a transepithelial potential by activity of ion selective channels and active transport processes asymmetrically distributed in apical and basolateral membranes. The epithelium is maintained at a potential difference of 0 mV. The negative feedback circuit used for controlling the potential difference at 0 mV is called a voltage clamp circuit. Any current generated by the voltage clamp to maintain the transepithelial potential at 0 mV can arise only from biological active transport processes in the epithelial cells and the current (called short circuit current (ISC)) is a direct measure of these processes. Efflux of chloride to the apical surface is enabled by opening of apical CFTR channels, which allows water to move to the cellular surface and keep the tissue hydrated.
# [3] = human liver microsomes, 120 min
Structure (SMILES),Solubility relative to ivacaftor (times less soluble) [1],solubility [1],Metabolism back to ivacaftor or ivacaftor metabolites (in words) ([2]; human liver microsomes),"Substrate remaining (%) ([2]; human liver microsomes, 0 min)","Substrate loss (%) ([2]; human liver microsomes, 30 min)","Substrate remaining (%) ([2]; human liver microsomes, 30 min)","Substrate loss (%) ([2]; human liver microsomes, 60 min)","Substrate remaining (%) ([2]; human liver microsomes, 60 min)","Substrate loss (%) [2, 3]","Substrate remaining (%) [2, 3]",microsomal CLint at 1 uM ([2]; human liver microsomes),half-life at 1 uM ([2]; human liver microsomes),Metabolic stability (in words) [2],Metabolic stability (in words) ([2]; listed as compound represented by Formula I),Potency relative to ivacaftor (times more potent) (F508del CFTR; based on solubility difference between the compound and ivacaftor),"Potentiator response (in words) (F508del CFTR; homozygous F508del CFhBE monolayers, short circuit current, FIGS. 2A and 2B)","Duration/stability of potentiator response (in words) (F508del CFTR; homozygous F508del CFhBE, FIGS. 2A and 2B)",Fraction metabolized ([2]; incubated with human liver microsomes (text summary of Table 1))
"CC(C)(C)c1cc(C(C)(C)C)c(OCCOc2cc(NC(=O)c3c[nH]c4ccccc4c3=O)c(C(C)(C)C)cc2C(C)(C)C)cc1NC(=O)c1c[nH]c2ccccc2c1=O [Compound of Formula I, N,N′-((ethane-1,2-diylbis(oxy))bis(2,4-di-tert-butyl-5,1-phenylene))bis(4-oxo-1,4-dihydroquinoline-3-carboxamide)]",57.4 times,0.137 µM,"not to substantially metabolize to ivacaftor, hydroxymethyl-ivacaftor or ivacaftor-carboxylate; also recorded: does not revert back to ivacaftor",100%,No loss,108%,No loss,107%,No loss,120%,< 5.78 µL/min/mg,> 2 h,metabolically stable,chemically and metabolically stable,at least 15 times,potentiator response is similar to ivacaftor; also recorded: potentiated F508del CFTR,appears to remain stable longer than ivacftor,
"CC(C)(C)c1cc(C(C)(C)C)c(NC(=O)c2c[nH]c3ccccc3c2=O)cc1O [ivacaftor, reference compound]",,7.86 µM,,100%,30.4%,69.6%,49.1%,50.9%,69.5%,30.5%,10.6 µL/min/mg,1.09 h,,,,,,~70%
